In patent US20230320956A1, “DIARYLALKANE COMPOUNDS AND COMPOSITIONS FOR USE WITH SKIN AGING AND METHODS OF PRODUCTION THEREOF” (Unigen, Inc., priority 2022, published 2023):

Test system: keratinocytes (Hacat cell line)
Assay: Global gene expression (RNA-seq) in treated keratinocytes
Assay type: cell-based, human
Details: for Fold change (gene expression): 40 μM vs untreated; for Fold Enrichment / Number of Genes Differentially Expressed: 40 μM
Experimental: To determine specific expression changes dimethoxytolyl propylresorcinol exerted on human keratinocyte aging genes, keratinocytes (Hacat cell line) were treated dimethoxytolyl propylresorcinol at 40 μM and gene expression was analyzed by RNA-seq. Differential gene expression was compared to untreated keratinocytes and cells treated with 40 μM Retinol A to find genes involved in aging. […] Retinol was chosen as a positive control because retinoids have been described as having effective anti-aging and anti-wrinkle effects (Zasada M, 2019). We directly compared the effects of Retinol on keratinocytes with the same concentration of dimethoxytolyl propylresorcinol.

[1] = Gene Cluster Activation of MAPK activity
[2] = Gene Cluster Calcium ion binding
[3] = Gene Cluster Cell-cell signaling
[4] = Gene Cluster Cellular response to lipopolysaccharide
[5] = Gene Cluster Cellular response to retinoic acid
[6] = Gene Cluster Epidermis development
[7] = Gene Cluster Epithelial cell differentiation
[8] = Gene Cluster Extracellular exosome
[9] = Gene Cluster Extracellular matrix organization
[10] = Gene Cluster Extracellular region
[11] = Gene Cluster Extracellular space
[12] = Gene Cluster Growth factor activity
[13] = Gene Cluster Inflammatory response
[14] = Gene Cluster Intermediate filament cytoskeleton organization
[15] = Gene Cluster Negative regulation of ERK1 and ERK2 cascade
[16] = Gene Cluster Negative regulation of cell proliferation
[17] = Gene Cluster Negative regulation of endopeptidase activity
[18] = Gene Cluster Neutrophil chemotaxis
[19] = Gene Cluster O-glycan processing
[20] = Gene Cluster Osteoblast differentiation
[21] = Gene Cluster Positive regulation of angiogenesis
[22] = Gene Cluster Positive regulation of cell migration
[23] = Gene Cluster Positive regulation of cell proliferation
[24] = Gene Cluster Positive regulation of gene expression
[25] = Gene Cluster Positive regulation of smooth muscle cell proliferation
[26] = Gene Cluster Proteinaceous extracellular matrix
[27] = Gene Cluster Transforming growth factor beta receptor binding

## CC1=C(/C=C/C(C)=C/C=C/C(C)=C/CO)C(C)(C)CCC1 [Retinol, reference compound]
AHR - Aryl hydrocarbon receptor, Oxidative stress
  Fold change (gene expression): No effect
ANGPTL4 - Angiopoietin-like 4, Negative regulation of growth/Angiogenesis
  Fold change (gene expression): 2.77 fold
ANOS1 - Anosmin 1, ECM/Nerve adhesion
  Fold change (gene expression): 0.55 fold
BMP4 - Bone morphogenetic protein 4, Growth
  Fold change (gene expression): 0.51 fold
C3orf33 - Chromosome 3 open reading frame 33, Negative regulation of growth
  Fold change (gene expression): 2.24 fold
CD1D - CD1d molecule, ECM
  Fold change (gene expression): 0.32 fold
CDK5R1 - Cyclin-dependent kinase 5 activator 1, Growth/Skin barrier
  Fold change (gene expression): No effect
CEACAM1 - CEA cell adhesion molecule 1, Cell adhesion
  Fold change (gene expression): 3.00 fold
COL1A1 - Collagen type 1, ECM
  Fold change (gene expression): No effect
COL5A1 - Collagen type V alpha 1 chain, ECM
  Fold change (gene expression): 0.27 fold
CRISPLD2 - Cysteine-rich secretory protein LCCL domain-containing 2, ECM
  Fold change (gene expression): 1.98 fold
CXCL3 - C-X-C motif chemokine ligand 3, Immune signaling
  Fold change (gene expression): 2.60 fold
CYP1A1 - Cytochrome P450 family 1 subfamily A member 1, Drug metabolism
  Fold change (gene expression): 2.30 fold
ECM1 - Extracellular matrix protein 1, ECM
  Fold change (gene expression): No effect
EPHA4 - Ephrin type-A receptor 4, Cell adhesion, cell communication
  Fold change (gene expression): 0.55 fold
EREG - Epiregulin, Growth
  Fold change (gene expression): No effect
FABP5 - Fatty acid binding protein 5, Skin barrier
  Fold change (gene expression): No effect
FGF1 - Fibroblast growth factor 1, Growth
  Fold change (gene expression): 0.45 fold
FGF11 - Fibroblast growth factor 11, Growth
  Fold change (gene expression): 0.50 fold
FLRT2 - Fibronectin leucine-rich transmembrane protein 2, ECM
  Fold change (gene expression): 0.58 fold
[1]
  Fold Enrichment: 3.15 fold
  Number of Genes Differentially Expressed: 7
Gene Cluster Angiogenesis
  Fold Enrichment: 2.37 fold
  Number of Genes Differentially Expressed: 11
[2]
  Fold Enrichment: 2.04 fold
  Number of Genes Differentially Expressed: 30
Gene Cluster Cell development
  Fold Enrichment: 4.81 fold
  Number of Genes Differentially Expressed: 4
Gene Cluster Cell surface
  Fold Enrichment: 1.84 fold
  Number of Genes Differentially Expressed: 20
[3]
  Fold Enrichment: 2.46 fold
  Number of Genes Differentially Expressed: 13
[4]
  Fold Enrichment: 4.26 fold
  Number of Genes Differentially Expressed: 10
[5]
  Fold Enrichment: 4.12 fold
  Number of Genes Differentially Expressed: 6
[6]
  Fold Enrichment: 4.53 fold
  Number of Genes Differentially Expressed: 8
[7]
  Fold Enrichment: 4.81 fold
  Number of Genes Differentially Expressed: 7
[8]
  Fold Enrichment: 1.47 fold
  Number of Genes Differentially Expressed: 83
[9]
  Fold Enrichment: 3.19 fold
  Number of Genes Differentially Expressed: 13
[10]
  Fold Enrichment: 1.73 fold
  Number of Genes Differentially Expressed: 56
[11]
  Fold Enrichment: 2.48 fold
  Number of Genes Differentially Expressed: 67
[12]
  Fold Enrichment: 3.00 fold
  Number of Genes Differentially Expressed: 10
Gene Cluster Growth
  Fold Enrichment: 6.87 fold
  Number of Genes Differentially Expressed: 4
Gene Cluster Heparin binding
  Fold Enrichment: 4.86 fold
  Number of Genes Differentially Expressed: 16
[13]
  Fold Enrichment: 2.54 fold
  Number of Genes Differentially Expressed: 20
[14]
  Fold Enrichment: 9.62 fold
  Number of Genes Differentially Expressed: 3
[15]
  Fold Enrichment: 5.81 fold
  Number of Genes Differentially Expressed: 7
[16]
  Fold Enrichment: 2.43 fold
  Number of Genes Differentially Expressed: 20
[17]
  Fold Enrichment: 2.78 fold
  Number of Genes Differentially Expressed: 7
[18]
  Fold Enrichment: 3.65 fold
  Number of Genes Differentially Expressed: 5
[19]
  Fold Enrichment: 4.00 fold
  Number of Genes Differentially Expressed: 5
[20]
  Fold Enrichment: 3.24 fold
  Number of Genes Differentially Expressed: 7
[21]
  Fold Enrichment: 3.35 fold
  Number of Genes Differentially Expressed: 8
[22]
  Fold Enrichment: 3.40 fold
  Number of Genes Differentially Expressed: 13
[23]
  Fold Enrichment: 1.86 fold
  Number of Genes Differentially Expressed: 18
[24]
  Fold Enrichment: 2.20 fold
  Number of Genes Differentially Expressed: 12
[25]
  Fold Enrichment: 4.81 fold
  Number of Genes Differentially Expressed: 6
[26]
  Fold Enrichment: 4.27 fold
  Number of Genes Differentially Expressed: 23
Gene Cluster Response to drug
  Fold Enrichment: 2.37 fold
  Number of Genes Differentially Expressed: 15
[27]
  Fold Enrichment: 5.79 fold
  Number of Genes Differentially Expressed: 5
HAS2 - hyaluronan synthase 2, ECM
  Fold change (gene expression): No effect
HAS3 - hyaluronan synthase 3, ECM
  Fold change (gene expression): No effect
HBEGF - Heparin-binding EGF-like growth factor, Growth
  Fold change (gene expression): No effect
HIF1A - Hypoxia-inducible factor 1 subunit alpha, Oxidative stress
  Fold change (gene expression): No effect
HMOX1 - Heme oxygenase 1, Oxidative stress
  Fold change (gene expression): No effect
HS3ST1 - Heparan sulfate-glucosamine 3-sulfotransferase 1, ECM
  Fold change (gene expression): 1.48 fold
IL1A - Interleukin 1 alpha, Cytokine signaling
  Fold change (gene expression): No effect
IL1RL1 - Interleukin 1 receptor-like 1, Immune signaling
  Fold change (gene expression): 3.13 fold
ITGA6 - Integrin subunit alpha 6, Cell adhesion
  Fold change (gene expression): 0.59 fold
ITGBL1 - Integrin subunit beta-like 1, Cell adhesion
  Fold change (gene expression): No effect
KIF13A - Kinesin family member 13A, Cytoskeleton/secretion
  Fold change (gene expression): 0.68 fold
LAMA3 - Laminin subunit alpha 3, ECM
  Fold change (gene expression): No effect
LAMC2 - Laminin subunit gamma 2, ECM
  Fold change (gene expression): 0.71 fold
NGF - Nerve growth factor, Growth
  Fold change (gene expression): No effect
NID2 - Nidogen 2 precursor, ECM
  Fold change (gene expression): 0.79 fold
OCLN - Occludin, Skin barrier
  Fold change (gene expression): No effect
OLFM4 - Olfactomedin 4, ECM
  Fold change (gene expression): 0.28 fold
PARP15 - Poly (ADP-Ribose) polymerase family member 15, DNA damage repair/transcription regulation
  Fold change (gene expression): No effect
PI3 - Peptidase inhibitor 3, elastase inhibitor, Elastin genes
  Fold change (gene expression): No effect
PSAPL1 - Prosaposin-like 1, ECM
  Fold change (gene expression): 0.32 fold
PSG5 - Pregnancy specific beta-1-glycoprotein 5, ECM
  Fold change (gene expression): 0.37 fold
PTPRR - Protein tyrosine phosphatase receptor type R, Negative regulation of growth
  Fold change (gene expression): 2.31 fold
RAPGEF3 - Rap guanine nucleotide exchange factor 3, Plasma membrane fusion/cytoskeleton
  Fold change (gene expression): 1.81 fold
SELE - E-Selectin, Cell adhesion
  Fold change (gene expression): No effect
SEMA3D - Semaphorin 3D, ECM/Nerve growth
  Fold change (gene expression): 0.50 fold
SERPINB2 - Serpin family B member 2, Skin barrier
  Fold change (gene expression): 0.70 fold
SERPINB4 - Serpin family B member 4, Skin barrier
  Fold change (gene expression): No effect
SIRT1 - Sirtuin 1, Transcription regulation
  Fold change (gene expression): No effect
SIRT7 - Sirtuin 7, Transcription regulation
  Fold change (gene expression): No effect
SOD2 - Superoxide dismutase 2, Oxidative stress
  Fold change (gene expression): No effect
TFP12 - Tissue factor pathway inhibitor 2, ECM
  Fold change (gene expression): 2.46 fold
TGFB1 - Transforming growth factor beta 1, TGF-β signaling
  Fold change (gene expression): No effect
TLR4 - Toll-like receptor 4, Immune signaling
  Fold change (gene expression): 2.67 fold
TNC - Tenascin C, ECM/Nerve growth
  Fold change (gene expression): 0.14 fold
TP73 - Tumor protein P73, Growth
  Fold change (gene expression): 0.38 fold
TXNRD1 - Thioredoxin reductase 1, Oxidative stress
  Fold change (gene expression): 1.45 fold
UGCG - UDP-glucose ceramide glucosyltransferase, Lipid metabolism and transport
  Fold change (gene expression): 1.24 fold
VIT - Vitrin, ECM
  Fold change (gene expression): 0.14 fold
